Calls of active or inactive are those of the source.
Assays:
Cytochrome P450 3A4 = Cytochrome P450 3A4 (Homo sapiens, UniProt P08684);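 also: CYP3A4 tested as one member of a cytochrome P450 panel screen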
Cytochrome P450 2C19 = Cytochrome P450 2C19 (Homo sapiens, UniProt P33261); experiment: Cytochrome panel assay with activity outcomes. Panel member name: p450-cyp2c19 Compounds with AC50 equal or less than 10 uM are considered active; type: functional; details: read-out: AC50
Cytochrome P450 2C9 = Cytochrome P450 2C9 (Homo sapiens, UniProt P11712)
cells [1] = type: functional, cell-based
[2] = target: T1, Nuclear receptor subfamily 0 group B member 1 (Homo sapiens, UniProt P51843); type: functional, cell-based;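 also: HEK293T cells transfected with SF-1 and DAX-1 plus StAR promoter luciferase reporter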
T1 sequence (P51843 whole entry): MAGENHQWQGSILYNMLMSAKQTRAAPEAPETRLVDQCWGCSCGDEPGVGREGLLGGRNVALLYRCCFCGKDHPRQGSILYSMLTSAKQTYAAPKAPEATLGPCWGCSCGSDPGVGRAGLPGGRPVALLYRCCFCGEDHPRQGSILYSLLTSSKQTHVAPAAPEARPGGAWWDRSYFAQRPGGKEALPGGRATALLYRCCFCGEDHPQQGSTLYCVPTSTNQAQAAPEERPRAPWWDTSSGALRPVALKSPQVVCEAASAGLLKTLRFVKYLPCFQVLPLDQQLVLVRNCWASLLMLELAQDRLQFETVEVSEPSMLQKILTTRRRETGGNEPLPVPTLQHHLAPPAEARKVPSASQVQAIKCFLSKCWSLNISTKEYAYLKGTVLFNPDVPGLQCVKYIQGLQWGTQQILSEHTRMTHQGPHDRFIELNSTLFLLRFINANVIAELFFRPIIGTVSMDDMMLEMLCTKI

Paired box protein Pax-8 = Paired box protein Pax-8 (Homo sapiens, UniProt Q06710); experiment: inhibitors of PAX8-driven TPO luciferase reporter, dose response, RMG-I cells, cherry-pick (AID 687027); type: functional, cell-based;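 also: luciferase reporter driven by Pax8 target thyroperoxidase promoter measured by SteadyGlo luminescence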
Cytochrome P450 1A2 = target: T2, Cytochrome P450 1A2 (Homo sapiens, UniProt P05177);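 also: PubChem cytochrome P450 panel assay, CYP1A2 panel member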
T2 sequence (P05177 whole entry): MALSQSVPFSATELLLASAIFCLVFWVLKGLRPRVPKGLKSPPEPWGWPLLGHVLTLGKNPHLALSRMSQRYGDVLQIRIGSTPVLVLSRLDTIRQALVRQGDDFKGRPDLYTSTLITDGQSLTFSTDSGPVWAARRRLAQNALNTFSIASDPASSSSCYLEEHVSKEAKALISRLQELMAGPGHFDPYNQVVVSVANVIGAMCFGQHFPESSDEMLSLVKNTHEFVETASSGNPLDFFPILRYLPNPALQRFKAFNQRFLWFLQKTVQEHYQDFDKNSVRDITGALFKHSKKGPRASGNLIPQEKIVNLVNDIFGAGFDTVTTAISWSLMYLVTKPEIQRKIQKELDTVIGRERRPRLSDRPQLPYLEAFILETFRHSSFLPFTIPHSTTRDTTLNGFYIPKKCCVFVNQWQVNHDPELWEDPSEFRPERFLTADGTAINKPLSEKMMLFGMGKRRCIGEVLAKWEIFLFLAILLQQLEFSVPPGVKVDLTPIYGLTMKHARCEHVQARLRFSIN

[3] = microbe, parasite or virus in culture; type: functional; details: Mycobacterium tuberculosis
cells [4] = type: functional

Cytochrome P450 3A4, sequence (P08684 whole entry): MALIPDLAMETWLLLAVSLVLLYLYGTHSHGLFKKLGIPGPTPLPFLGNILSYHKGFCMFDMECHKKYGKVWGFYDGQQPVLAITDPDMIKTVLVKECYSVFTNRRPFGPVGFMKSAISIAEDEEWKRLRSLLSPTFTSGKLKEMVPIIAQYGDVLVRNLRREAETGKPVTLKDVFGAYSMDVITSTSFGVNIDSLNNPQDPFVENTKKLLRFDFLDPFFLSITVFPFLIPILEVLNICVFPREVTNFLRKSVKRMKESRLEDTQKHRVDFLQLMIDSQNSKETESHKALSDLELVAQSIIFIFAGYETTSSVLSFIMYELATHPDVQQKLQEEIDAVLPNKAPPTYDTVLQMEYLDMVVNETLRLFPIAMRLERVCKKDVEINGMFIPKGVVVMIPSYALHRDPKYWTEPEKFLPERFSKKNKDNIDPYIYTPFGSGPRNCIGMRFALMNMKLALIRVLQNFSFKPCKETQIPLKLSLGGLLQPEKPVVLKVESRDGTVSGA
Cytochrome P450 2C19, sequence (P33261 whole entry): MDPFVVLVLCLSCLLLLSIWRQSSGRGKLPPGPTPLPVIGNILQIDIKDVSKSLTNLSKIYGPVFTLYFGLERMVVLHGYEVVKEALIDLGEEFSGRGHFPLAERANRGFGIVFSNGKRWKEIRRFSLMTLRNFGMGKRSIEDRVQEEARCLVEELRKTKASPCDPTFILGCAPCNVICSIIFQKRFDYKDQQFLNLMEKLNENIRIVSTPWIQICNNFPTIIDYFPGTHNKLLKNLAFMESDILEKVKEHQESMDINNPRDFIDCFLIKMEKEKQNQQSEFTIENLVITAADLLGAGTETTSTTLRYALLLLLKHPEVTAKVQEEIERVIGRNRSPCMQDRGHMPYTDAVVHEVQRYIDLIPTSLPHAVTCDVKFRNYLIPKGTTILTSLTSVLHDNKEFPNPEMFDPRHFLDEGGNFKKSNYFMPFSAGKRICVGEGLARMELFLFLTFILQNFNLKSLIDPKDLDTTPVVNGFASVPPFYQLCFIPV
Paired box protein Pax-8, sequence (Q06710 whole entry): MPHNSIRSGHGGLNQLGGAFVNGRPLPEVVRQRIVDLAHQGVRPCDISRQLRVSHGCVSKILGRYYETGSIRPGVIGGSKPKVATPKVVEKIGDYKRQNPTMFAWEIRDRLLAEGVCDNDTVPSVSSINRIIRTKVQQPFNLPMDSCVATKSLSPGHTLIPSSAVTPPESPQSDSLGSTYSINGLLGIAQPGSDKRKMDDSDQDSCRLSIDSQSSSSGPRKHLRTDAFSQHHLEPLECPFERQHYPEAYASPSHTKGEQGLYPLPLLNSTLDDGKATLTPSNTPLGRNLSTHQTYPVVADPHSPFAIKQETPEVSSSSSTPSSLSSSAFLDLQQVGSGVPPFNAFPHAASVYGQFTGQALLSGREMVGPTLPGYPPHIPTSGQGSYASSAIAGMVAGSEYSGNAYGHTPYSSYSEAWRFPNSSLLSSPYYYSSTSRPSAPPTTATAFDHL
Cytochrome P450 2C9, sequence (P11712 whole entry): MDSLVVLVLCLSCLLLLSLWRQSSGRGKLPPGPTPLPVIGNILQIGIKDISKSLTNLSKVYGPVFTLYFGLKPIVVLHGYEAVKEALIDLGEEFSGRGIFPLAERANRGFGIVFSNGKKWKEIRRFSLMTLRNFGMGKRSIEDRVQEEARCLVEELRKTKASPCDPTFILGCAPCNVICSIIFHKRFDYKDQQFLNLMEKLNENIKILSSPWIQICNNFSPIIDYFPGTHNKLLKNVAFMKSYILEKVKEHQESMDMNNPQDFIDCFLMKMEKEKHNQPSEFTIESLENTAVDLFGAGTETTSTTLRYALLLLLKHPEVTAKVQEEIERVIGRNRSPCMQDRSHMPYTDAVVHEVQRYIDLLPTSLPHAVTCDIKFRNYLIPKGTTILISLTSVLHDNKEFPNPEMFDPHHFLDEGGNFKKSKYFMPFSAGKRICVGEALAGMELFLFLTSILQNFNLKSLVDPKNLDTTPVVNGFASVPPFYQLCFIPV

Row | Compound | AC50 (Cytochrome P450 3A4) | IC50 (cells [1]) | IC50 [2] | AC50 (Cytochrome P450 1A2) | other results
1 | CCn1c(/C=C2/C(=O)N(C)c3ccccc32)nc2ccccc2c1=O | inconclusive |  |  |  | 
2 | O=C(OC1CCN(c2ncc(C(F)(F)F)cc2Cl)CC1)c1cccc(C(F)(F)F)c1 | inconclusive |  |  |  | AC50 (Cytochrome P450 2C19): 8.91 µM (inconclusive); AC50 (Cytochrome P450 2C9): 0.2 µM (inconclusive)
3 | CC(=Nc1ccccc1)C1=C(O)C(Cc2ccccc2)NC1=O (stereo not given) |  | > 67.6 µM (inactive) | 15.8 µM (inactive) |  | 
4 | CC(=O)Nc1ccc(-c2ccnc3c2CC(C(=O)NCc2ccccc2)O3)cc1 (stereo not given) |  | > 67.5 µM (inactive) | > 67.5 µM (inactive) |  | AC50 (Paired box protein Pax-8): 1.5 µM (active)
5 | O=C(c1ccc(F)cc1)C1CCN(CCCCc2ccccc2)CC1 | inconclusive |  |  | 31.6 µM (inconclusive) | 
6 | Cc1cc(/C=N\NC(=O)c2cccs2)c(C)n1-c1ccc2ncccc2c1 | inconclusive |  |  | 39.8 µM (inconclusive) | CC50 [3]: > 40 µM (active); IC50 (cells [4]): 34 µM (active)
